From patent US8507290B2, “Water-soluble silsesquioxanes as organic quantum dots for sensing and imaging” (National University of Singapore, priority 2009, dated 2013)

How the values were obtained:
[1] = test system: breast cancer cells (MCF-7); assay: One-photon and two-photon fluorescent cellular nucleus imaging (CLSM); format: cell-based; details: 2 h, signals above 560 nm
Procedure: One-photon and two-photon fluorescence images of the MCF-7 cells were then obtained.
OPEF imaging was obtained by excitation of the cells at 488 nm and collection of fluorescence above 560 nm under the fixed parameters. […] As nucleolus is the site of ribosomal RNA synthesis, it has the highest concentration of RNA in nucleus.
For TPEF imaging, the dye concentrations are fixed at 1 μM, and the cellular images were acquired by excitation of the cells at near-infrared wavelength (760 nm) and collection of signals above 560 nm.

dsDNA and RNA = details: cited from earlier work

Molecule: CCCN(CCCN(C)C)c1cc(/C=C2/Sc3ccccc3N2C)c2ccccc2[n+]1-c1ccccc1 [SG, SYBR Green I]
- two-photon fluorescence (TPEF) imaging of nucleus ([1]; MCF-7, 1 μM dye, excitation at 760 nm): does not provide a clear cellular image
- one-photon fluorescence (OPEF) imaging: uptake and localisation ([1]; MCF-7, dye 1 μM (also 0.1 and 0.02 μM), excitation at 488 nm): homogenously-stained nucleus pattern
- light-up response toward dsDNA and RNA (commercial dyes) (dsDNA and RNA): only shows strong light-up response toward dsDNA

Molecule: SYTO 9
- light-up response toward dsDNA and RNA (commercial dyes) (dsDNA and RNA): nearly equal light-up responses toward dsDNA and RNA
